We go through four compounds from patent US6977294B2, “Process for isolation of eupalitin from Boerhavia diffusa” (Council of Scientific and Industrial Research, priority 2002, dated 2005).

In one data set the test system is Ca^2+ channel. To be noted: frog heart single cells; cited from earlier work.
A short description of another data set: solubility in methanol. The data set is classed as physicochemical. From the text:
The process of the present invention overcomes disadvantages of the prior art since: • 1. Aerial parts such as leaves of Boerhavia diffusa collected from specific locations identified herein are used (containing the maximum amount of the compound and as established by analyzing the samples of the plant collected during three years). • 2. The process prescribes hot continuous extraction (Soxhlet extraction) ensuring complete extraction of compound of formula 1. […] The compound is purified by direct crystallization from the residue obtained after triturition described in 3, making it the simplest, quickest, highly economically viable, scale up compatible for commercial utilization and novel method for the isolation of compound of formula 1 with an yield upto 0.4% which is more than 300 times the yield reported by Li et al.

The subject of data set [1] is bone resorption induced by parathyroid hormone (PTH). Particulars: cited from earlier work; for activity compared with ipriflavone: under identical conditions, anti-osteoporosis activity.
The conditions of data set [2]: rats; cited from earlier work.
For data set [3] the following is noted: cats; cited from earlier work.
For data set [4] the following is noted: monkeys; cited from earlier work.

“Also recorded” adds a separate entry of the source. Like-named read-outs stand apart in the source and are kept apart here.

As for `COc1cc([C@H]2OC[C@H]3[C@@H]2CO[C@@H]3c2cc(OC)c(O[C@@H]3O[C@H](CO)[C@@H](O)[C@H](O)[C@H]3O)c(OC)c2)cc(OC)c1O[C@@H]1O[C@H](CO)[C@@H](O)[C@H](O)[C@H]1O` [Liriodendrin, liriodendrin], in the data set with Ca^2+ channel, the “Ca2+ channel block” value is “blocked”.
Take `COc1cc2oc(-c3ccc(O)cc3)c(OC3OC(CO)C(O)C(O)C3O)c(=O)c2c(O)c1OC` [eupalitin 3-O-β-D-galactopyranoside, 5,4′-dihydroxy 6,7-dimethoxy-flavonol-3-O-β-D-galactoside]: the solubility in methanol result in the data set “solubility in methanol” is “not highly soluble”. In data set [1] (tissue culture), the “inhibition of bone resorption induced by parathyroid hormone (PTH)” value is on record as “significant (p<0.001) inhibition”. The “activity compared with ipriflavone” value in data set [1] was “greater anti-osteoporosis activity than ipriflavone; also recorded: more than that exhibited by lpriflavone”; in data set [1] (listed as 3-O-β-D-galactopyranoside), “greater anti-osteoporosis activity than ipriflavone”.
`O=c1[nH]cnc2c1ncn2C1O[C@@H](CO)[C@H](O)[C@H]1O` (stereo partly drawn) [hypoxanthine 9-L-arabinoside]: the cardiovascular effects result was “depressor and negative chronotropic effects” in data set [2]; “depressor and negative chronotropic effects” in data set [3].
As for Punarnavoside, the antifibrinolytic activity entry in data set [4] is recorded as “had antifibrinolytic activity”.
